Measured values reported in patent US12077503B2, “Substituted cyclic amides and their use as herbicides” (FMC CORPORATION, priority 2015, dated 2024).
Read-outs that look alike come from different tables or passages of the source.

Experiments:
corn (Zea mays) = experiment: Test A postemergence; format: in vivo; conditions: Zea mays, post-emergence, 240 h; for plant injury at 125 g/ha / Corn plant response rating (crop injury, 0 = no effect, 100 = complete kill) at 125 g/ha: 125 g ai/ha; for Corn plant response rating (crop injury, 0 = no effect, 100 = complete kill) at 125 g/ha: Postemergence, visual injury after approximately 10 d, 0 to 100 scale where 0 is no effect and 100 is complete control
How it was run: (§1)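 Visual injury, scored on a 0–100 scale relative to untreated controls, was recorded about 10 d after application. Treatments were a preemergence soil spray over planted seeds or a postemergence spray on plants at the one- to two-leaf stage, 2 to 10 cm tall, all in loam soil–sand blend in the greenhouse.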

[1] = system: giant foxtail (Setaria faberii); experiment: Test A postemergence; format: in vivo; conditions: Setaria faberi, post-emergence, 240 h; for pest or weed control at 125 g/ha: 125 g ai/ha
How it was run: as §1

[2] = system: wheat (Triticum aestivum); experiment: Test A postemergence; format: in vivo; conditions: Triticum aestivum, post-emergence, 240 h; for plant injury at 125 g/ha: 125 g ai/ha
How it was run: as §1

[3] = system: ryegrass, Italian (Italian ryegrass, Lolium multiflorum); experiment: Test A postemergence; format: in vivo; conditions: Lolium multiflorum, post-emergence, 240 h; for pest or weed control at 125 g/ha: 125 g ai/ha
How it was run: as §1

[4] = system: Galium (catchweed bedstraw, Galium aparine); experiment: Test A postemergence; format: in vivo; conditions: Galium, post-emergence, 240 h; for pest or weed control at 125 g/ha: 125 g ai/ha
How it was run: as §1

[5] = system: ragweed (common ragweed, Ambrosia elatior); experiment: Test A postemergence; format: in vivo; conditions: Ambrosia artemisiifolia, post-emergence, 240 h; for pest or weed control at 125 g/ha: 125 g ai/ha
How it was run: as §1

[6] = Postemergence, visual injury after approximately 10 d, 0 to 100 scale where 0 is no effect and 100 is complete control, read-out: Plant response rating, Foxtail, Giant
[7] = Postemergence, visual injury after approximately 10 d, 0 to 100 scale where 0 is no effect and 100 is complete control, read-out: Plant response rating, Wheat
[8] = Postemergence, visual injury after approximately 10 d, 0 to 100 scale where 0 is no effect and 100 is complete control, read-out: Plant response rating, Ryegrass, Italian
[9] = Postemergence, visual injury after approximately 10 d, 0 to 100 scale where 0 is no effect and 100 is complete control, read-out: Plant response rating, Galium
[10] = Postemergence, visual injury after approximately 10 d, 0 to 100 scale where 0 is no effect and 100 is complete control, read-out: Plant response rating, Ragweed

melting point [°C]	Compound	Corn plant response rating (crop injury, 0 = no effect, 100 = complete kill) at 125 g/ha (corn (Zea mays)) [%]	pest or weed control at 125 g/ha [1, 6] [%]	plant injury at 125 g/ha [2, 7] [%]	pest or weed control at 125 g/ha [3, 8] [%]	pest or weed control at 125 g/ha [4, 9] [%]	pest or weed control at 125 g/ha [5, 10] [%]	also measured
102 to 106	O=C1NC[C@H](c2ccc(F)c(OC(F)(F)C(F)F)c2)[C@H]1C(=O)Nc1ccc(F)cc1F (racemic) [Compound 1154]	–	–	–	–	–	–	plant injury at 125 g/ha (corn (Zea mays); postemergence, visual injury on 0 to 100 scale (0 no effect, 100 complete control), approx. 10 d, read-out: Corn plant response rating): 90%; plant injury at 500 g/ha (corn (Zea mays); 500 g ai/ha, postemergence, 0 to 100 scale, 0 is no effect, 100 is complete control, read-out: Corn plant response rating): 90%; pest or weed control at 125 g/ha ([1]; postemergence, visual injury on 0 to 100 scale (0 no effect, 100 complete control), approx. 10 d, read-out: Foxtail, Giant plant response rating): 90%; pest or weed control at 500 g/ha ([1]; 500 g ai/ha, postemergence, 0 to 100 scale, 0 is no effect, 100 is complete control, read-out: Foxtail, Giant plant response rating): 60%; plant injury at 125 g/ha ([2]; postemergence, visual injury vs untreated controls after approx. 10 d, 0 = no effect, 100 = complete control, read-out: Wheat plant response rating (0 to 100 scale)): 40%; plant injury at 500 g/ha ([2]; 500 g ai/ha, postemergence, 0 to 100 scale, 0 is no effect, 100 is complete control, read-out: Wheat plant response rating): 80%; pest or weed control at 125 g/ha ([3]; postemergence, visual injury vs untreated controls after approx. 10 d, 0 = no effect, 100 = complete control, read-out: Ryegrass, Italian plant response rating (0 to 100 scale)): 30%; pest or weed control at 500 g/ha ([3]; 500 g ai/ha, postemergence, 0 to 100 scale, 0 is no effect, 100 is complete control, read-out: Ryegrass, Italian plant response rating): 50%; pest or weed control at 125 g/ha ([4]; postemergence, visual injury on 0 to 100 scale (0 no effect, 100 complete control), approx. 10 d, read-out: Galium plant response rating): 60%; pest or weed control at 500 g/ha ([4]; 500 g ai/ha, postemergence, 0 to 100 scale, 0 is no effect, 100 is complete control, read-out: Galium plant response rating): 70%; pest or weed control at 125 g/ha ([5]; postemergence, visual injury vs untreated controls after approx. 10 d, 0 = no effect, 100 = complete control, read-out: Ragweed plant response rating (0 to 100 scale)): 0%; pest or weed control at 500 g/ha ([5]; 500 g ai/ha, postemergence, 0 to 100 scale, 0 is no effect, 100 is complete control, read-out: Ragweed plant response rating): 40%
132 to 135	CN1CC(c2cccc(I)c2)C(C(=O)Nc2ccccc2F)C1=O (stereo not drawn) [Compound 846]	–	–	–	–	–	–	plant injury at 125 g/ha (corn (Zea mays); postemergence, visual injury rating after approximately 10 d, read-out: Corn plant response rating (0 to 100 scale, 0 no effect, 100 complete control)): 60%; pest or weed control at 125 g/ha ([1]; postemergence, visual injury rating after approximately 10 d, read-out: Foxtail, Giant plant response rating (0 to 100 scale, 0 no effect, 100 complete control)): 90%; plant injury at 125 g/ha ([2]; postemergence, visual injury rating after approximately 10 d, read-out: Wheat plant response rating (0 to 100 scale, 0 no effect, 100 complete control)): 0%; pest or weed control at 125 g/ha ([3]; postemergence, visual injury rating after approximately 10 d, read-out: Ryegrass, Italian plant response rating (0 to 100 scale, 0 no effect, 100 complete control)): 70%; pest or weed control at 125 g/ha ([4]; postemergence, visual injury rating after approximately 10 d, read-out: Galium plant response rating (0 to 100 scale, 0 no effect, 100 complete control)): 0%; pest or weed control at 125 g/ha ([5]; postemergence, visual injury rating after approximately 10 d, read-out: Ragweed plant response rating (0 to 100 scale, 0 no effect, 100 complete control)): 0%
181 to 184	CN1C[C@H](c2ccc(C(F)(F)F)cc2)[C@@H](C(=O)Nc2ccccc2[S+](C)[O-])C1=O (stereo partly drawn) [Compound 915]	0	90	40	30	50	30	–
123 to 126	CN1C[C@H](c2ccc(C(F)(F)F)cc2)[C@@H](C(=O)Nc2ccc(F)cc2Br)C1=O [Compound 934]	20	90	0	0	60	0	–
119 to 122	Cc1cc(F)ccc1NC(=O)[C@H]1C(=O)N(C)C[C@@H]1c1ccc(C(F)(F)F)cc1 [Compound 936]	30	90	30	0	40	0	–
178 to 181	Cc1cccc(NC(=O)[C@H]2C(=O)N(C)C[C@@H]2c2ccc(C(F)(F)F)cc2)c1F [Compound 939]	0	90	20	0	20	0	–
